One assay addresses FXR (Homo sapiens (Human), UniProt Q96RI1). The assay is described as follows: transient human FXR/Gal4-luciferase reporter assay.
Conditions: not given
In kind it is cell-based. The method, then: A Gal4-hFXR fusion construct reporter system was used as the primary assay to characterize compound activity. A construct including 5 copies of the Gal4 promoter response element upstream of a firefly luciferase reporter cDNA was stably expressed in HEK293 cells. This reporter cell line was maintained in Dulbecco's Modified Eagle's medium (DMEM; Gibco) supplemented with 1% penicillin-streptomycin (P/S) solution, 500 μg/mL Zeocin and 10% charcoal/dextran-treated fetal bovine serum (cs-FBS) at 37° C. in a humidified 5% CO2 atmosphere. Another plasmid was constructed in which the human cytomegalovirus promoter in the pcDNA3.1 vector directs the expression of the cDNA encoding a fusion protein comprised of the DNA binding domain from the Gal4 transcription factor fused to the ligand binding domain from human FXR.
The day prior to transfection, the reporter cells in culture are detached from the plate with trypsin and plated into a T75 flask at a sufficient density to achieve approximately 90% confluence the next morning. The transfection reagents are prepared by separately diluting 25 μg of the pcDNA3.1-Gal4-FXR plasmid into 1.87 mL of Opti-MEM (Thermo-Fisher), and 40 μL of Lipofectamine 2000 (Thermo-Fisher) into 1.87 mL of Opti-MEM, and then adding the diluted DNA solution into the diluted Lipofectamine 2000 solution and incubating at room temperature for 15-20 minutes. The mixture is further diluted with 10 mL of a solution comprised of DMEM, 10% cs-FBS, and 1% P/S immediately prior to transferring to the cells. The maintenance culture media is aspirated from the cells and the final transfection mixture is added before the cells are incubated overnight at 37° C. in a humidified 5% CO2 atmosphere. This protocol can be scaled up, and the transiently transfected cells can be cryopreserved in an assay-ready format.
For compound testing, 100 nL of the compounds (serial dilutions in DMSO) are dispensed with an Echo acoustic dispenser (Labcyte) into the wells of a Corning/Costar clear bottom 384-well white plate. The transfected cells are harvested, counted, and diluted such that 10-25,000 cells in 25 μL are plated into each well of the 384-well compound assay plate. The compound-treated cells are incubated overnight at 37° C. in a humidified 5% CO2 atmosphere. The next morning 25 μL of Steady-Glo (Promega) are added to each well of the plate, the mixture is incubated for 15 min. with shaking, and luminescence is measured on an Envision (Perkin Elmer) plate reader.
Chain of FXR (Q96RI1 262-486): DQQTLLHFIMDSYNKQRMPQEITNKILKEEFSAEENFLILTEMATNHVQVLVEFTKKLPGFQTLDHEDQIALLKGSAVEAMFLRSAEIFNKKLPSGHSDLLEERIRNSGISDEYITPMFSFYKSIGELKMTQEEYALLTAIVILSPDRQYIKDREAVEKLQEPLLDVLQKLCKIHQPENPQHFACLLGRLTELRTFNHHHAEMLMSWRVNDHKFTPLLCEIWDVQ
With `CC(C)(C)c1nc(C23CCC(CN(C(=O)C45CC(F)(C4)C5)c4cc(-c5ccc(OC(F)F)cc5)ccn4)(CC2)CC3)no1` [Example 533, N-((4-(5-(tert-butyl)-1,2,4-oxadiazol-3-yl)bicyclo[2.2.2]octan-1-yl)methyl)-N-(4-(4-(difluoromethoxy)phenyl)pyridin-2-yl)-3-fluorobicyclo[1.1.1]pentane-1-carboxamide], the EC50 is 26 nM.
Still for that read-out and setting: in the case of `CC(C)(C)c1noc(C23CCC(CN(C(=O)C45CC(F)(C4)C5)c4cncc(-c5cnc(C6CC6)nc5)c4)(CC2)CC3)n1` [Example 473, N-((4-(3-(tert-butyl)-1,2,4-oxadiazol-5-yl)bicyclo[2.2.2]octan-1-yl)methyl)-N-(5-(2-cyclopropylpyrimidin-5-yl)pyridin-3-yl)-3-fluorobicyclo[1.1.1]pentane-1-carboxamide] it was 501 nM; in that of `CC(C)(C)c1nc(C23CCC(CN(C(=O)C45CC(F)(C4)C5)c4cncc(-c5ccc(NS(C)(=O)=O)cc5)c4)(CC2)CC3)no1` [Example 481, N-((4-(5-(tert-butyl)-1,2,4-oxadiazol-3-yl)bicyclo[2.2.2]octan-1-yl)methyl)-3-fluoro-N-(5-(4-(methylsulfonamido)phenyl)pyridin-3-yl)bicyclo[1.1.1]pentane-1-carboxamide], 580 nM.

The assay is the same for the next values; noted with them: Gal4-hFXR fusion construct, HEK293 reporter cells; response relative to 8 μM GW-4064.
As for `CCOc1ccc(-c2cccc(N(CC34CCC(c5nc(C(C)C)no5)(CC3)CC4)C(=O)C34CC(F)(C3)C4)c2)cc1` [Example 375, N-(4′-ethoxy-[1,1′-biphenyl]-3-yl)-3-fluoro-N-((4-(3-isopropyl-1,2,4-oxadiazol-5-yl)bicyclo[2.2.2]octan-1-yl)methyl)bicyclo[1.1.1]pentane-1-carboxamide], the EC50 worked out at 61 nM.
The compound `COc1cc(-c2cccc(N(CC34CCC(c5nnc(C)s5)(CC3)CC4)C(=O)C3CC(F)(F)C3)c2)ccn1` [Example 234, 3,3-difluoro-N-(3-(2-methoxypyridin-4-yl)phenyl)-N-((4-(5-methyl-1,3,4-thiadiazol-2-yl)bicyclo[2.2.2]octan-1-yl)methyl)cyclobutane-1-carboxamide] came in with a concentration giving a half-maximal response (EC50) of 1760 nM.
Same read-out and setting: in the case of `CC(C)(O)c1ccc(-c2cccc(N(CC34CCC(c5noc(C(C)(C)F)n5)(CC3)CC4)C(=O)NC3CCC(O)(C(F)(F)F)CC3)c2)cc1` (single isomer, unassigned) [Example 600, 1-((4-(5-(2-fluoropropan-2-yl)-1,2,4-oxadiazol-3-yl)bicyclo[2.2.2]octan-1-yl)methyl)-3-(4-hydroxy-4-(trifluoromethyl)cyclohexyl)-1-(4′-(2-hydroxypropan-2-yl)-[1,1′-biphenyl]-3-yl) urea] it was 16 nM; in that of `CC(C)(C#N)Oc1ccc(-c2ccnc(N(CC34CCC(c5nc(C6CC6)no5)(CC3)CC4)C(=O)OC(C)(C)C(F)(F)F)c2)cc1` [Example 622, 1,1,1-trifluoro-2-methylpropan-2-yl(4-(4-((2-cyanopropan-2-yl)oxy)phenyl)pyridin-2-yl) ((4-(3-cyclopropyl-1,2,4-oxadiazol-5-yl)bicyclo[2.2.2]octan-1-yl)methyl)carbamate], 34 nM; in that of `CC(C)(C)c1noc(C23CCC(CN(C(=O)C45CC(F)(C4)C5)c4cccc(-c5ccc(NS(C)(=O)=O)cc5)c4)(CC2)CC3)n1` [Example 361, N-((4-(3-(tert-butyl)-1,2,4-oxadiazol-5-yl)bicyclo[2.2.2]octan-1-yl)methyl)-3-fluoro-N-(4′-(methylsulfonamido)-[1,1′-biphenyl]-3-yl)bicyclo[1.1.1]pentane-1-carboxamide], 843 nM.
On to `CC(=O)Nc1cccc(-c2cccc(N(CC34CCC(c5nc(C6CC6)no5)(CC3)CC4)C(=O)C34CC(F)(C3)C4)c2)c1` [Example 254, N-(3′-acetamido-[1,1′-biphenyl]-3-yl)-N-((4-(3-cyclopropyl-1,2,4-oxadiazol-5-yl)bicyclo[2.2.2]octan-1-yl)methyl)-3-fluorobicyclo[1.1.1]pentane-1-carboxamide], for which a half-maximal effect (EC50) was put at 241 nM.
The same measure, in the same setting: in the case of `CC(C)(O)C12CCC(c3ccnc(N(CC45CCC(c6nc(C7CC7)no6)(CC4)CC5)C(=O)OC(C)(C)C(F)(F)F)n3)(CC1)CC2` [Example 666, 1,1,1-trifluoro-2-methylpropan-2-yl ((4-(3-cyclopropyl-1,2,4-oxadiazol-5-yl)bicyclo[2.2.2]octan-1-yl)methyl)(4-(4-(2-hydroxypropan-2-yl)bicyclo[2.2.2]octan-1-yl)pyrimidin-2-yl)carbamate] it was 496 nM; in that of `Cc1nc2ccc(-c3cncc(N(CC45CCC(c6nc(C7CC7)no6)(CC4)CC5)C(=O)C45CC(F)(C4)C5)c3)cc2s1` [Example 425, N-((4-(3-cyclopropyl-1,2,4-oxadiazol-5-yl)bicyclo[2.2.2]octan-1-yl)methyl)-3-fluoro-N-(5-(2-methylbenzo[d]thiazol-6-yl)pyridin-3-yl)bicyclo[1.1.1]pentane-1-carboxamide], 198 nM; in that of `CC(C)c1nc(C23CCC(CN(C(=O)C45CC(F)(C4)C5)c4cccc(-c5cnc(C6CC6)nc5)c4)(CC2)CC3)no1` [Example 434, N-(3-(2-cyclopropylpyrimidin-5-yl)phenyl)-3-fluoro-N-((4-(5-isopropyl-1,2,4-oxadiazol-3-yl)bicyclo[2.2.2]octan-1-yl)methyl)bicyclo[1.1.1]pentane-1-carboxamide], 57 nM.
The same measure, in the same setting: in the case of `COc1ncc(-c2cccc(N(CC34CCC(c5noc(C6(C)CC6)n5)(CC3)CC4)C(=O)C34CC(F)(C3)C4)c2)cn1` [Example 400, 3-fluoro-N-(3-(2-methoxypyrimidin-5-yl)phenyl)-N-((4-(5-(1-methylcyclopropyl)-1,2,4-oxadiazol-3-yl)bicyclo[2.2.2]octan-1-yl)methyl)bicyclo[1.1.1]pentane-1-carboxamide] it was 51 nM.
On the same count and under the same terms, in the case of `Cc1nc2ccc(-c3cccc(N(CC45CCC(c6nnc(C7CC7)o6)(CC4)CC5)C(=O)C45CC(F)(C4)C5)c3)cc2s1` [Example 561, N-((4-(5-cyclopropyl-1,3,4-oxadiazol-2-yl)bicyclo[2.2.2]octan-1-yl)methyl)-3-fluoro-N-(3-(2-methylbenzo[d]thiazol-6-yl)phenyl)bicyclo[1.1.1]pentane-1-carboxamide] it was 58 nM; in that of `CC(C)(O)c1ccc(-c2ccnc(N(CC34CCC(c5ccc(C(C)(F)F)cn5)(CC3)CC4)C(=O)OC(C)(C)C(F)(F)F)c2)cc1` [Example 605, 1,1,1-trifluoro-2-methylpropan-2-yl((4-(5-(1,1-difluoroethyl)pyridin-2-1)bicyclo[2.2.2]octan-1-yl)methyl)(4-(4-(2-hydroxypropan-2-yl)phenyl)pyridin-2-yl)carbamate], 52 nM; in that of `CCOc1ncc(-c2cccc(N(CC34CCC(c5noc(C(F)F)n5)(CC3)CC4)C(=O)C34CC(F)(C3)C4)c2)cn1` [Example 459, N-((4-(5-(difluoromethyl)-1,2,4-oxadiazol-3-yl)bicyclo[2.2.2]octan-1-yl)methyl)-N-(3-(2-ethoxypyrimidin-5-yl)phenyl)-3-fluorobicyclo[1.1.1]pentane-1-carboxamide], 192 nM.
With `Cc1nc2ccc(-c3cccc(N(CC45CCC(c6cnc(C(F)(F)F)nc6)(CC4)OC5)C(=O)C45CC(F)(C4)C5)c3)cc2s1` [Example 421, 3-fluoro-N-(3-(2-methylbenzo[d]thiazol-6-yl)phenyl)-N-((1-(2-(trifluoromethyl)pyrimidin-5-yl)-2-oxabicyclo[2.2.2]octan-4-yl)methyl)bicyclo[1.1.1]pentane-1-carboxamide], the concentration giving a half-maximal response (EC50) was 2170 nM.

These data come from patent US11254663B2 (BRISTOL-MYERS SQUIBB COMPANY, priority 2019, dated 2022).
